Assay results reported in ChEMBL document CHEMBL1201862, “PubChem BioAssay data set” (2004).
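In this assay, cells in 96-well plates receive the compound at five concentrations for 48 hours. Endpoints are linearly interpolated between the surrounding concentrations. The concentration for 50% growth inhibition is given as GI50.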 Active and inactive are the calls of the source. Rule as the data show it: active = GI50 up to about 1.1 µM and inactive = higher.

How the values were obtained:
Experiment in all cases: NCI-60 cell line screen, 48 h
HCC 2998 = test system: HCC 2998
A549 = test system: A549
MDA-MB-435 = test system: MDA-MB-435
SF-268 = test system: SF-268
OVCAR-4 = test system: OVCAR-4
SW-620 = test system: SW-620
HL-60 = test system: HL-60
SK-MEL-2 = test system: SK-MEL-2
RPMI-8226 = test system: RPMI-8226
RXF 393 = test system: RXF 393
CAKI-1 = test system: CAKI-1
HOP-92 = test system: HOP-92
A498 = test system: A498
OVCAR-3 = test system: OVCAR-3
Malme-3M = test system: Malme-3M
SK-OV-3 = test system: SK-OV-3
MCF7 = test system: MCF7
OVCAR-8 = test system: OVCAR-8
EKVX = test system: EKVX
NCI/ADR-RES = test system: NCI/ADR-RES

Measured: GI50

C=CCNC(=O)N1CC(C)C(=O)Nc2ccccc21 (stereo unspecified)
inactive: HCC 2998 > 100 µM | A549 > 100 µM | MDA-MB-435 > 100 µM | SF-268 > 100 µM | OVCAR-4 > 100 µM | SW-620 > 100 µM | HL-60 > 100 µM | SK-MEL-2 > 100 µM | RPMI-8226 > 100 µM | RXF 393 > 100 µM | CAKI-1 > 100 µM | HOP-92 > 100 µM | A498 > 100 µM | OVCAR-3 > 100 µM | Malme-3M > 100 µM | SK-OV-3 > 100 µM | MCF7 > 100 µM | OVCAR-8 > 100 µM | EKVX > 100 µM

O=C(CC(C(=O)c1ccsc1)c1ccsc1)c1ccsc1 (stereo unspecified)
inactive: HCC 2998 > 100 µM | A549 68.5 µM | MDA-MB-435 44.6 µM | SF-268 > 100 µM | OVCAR-4 62.1 µM | SW-620 > 100 µM | HL-60 35.2 µM | SK-MEL-2 > 100 µM | RPMI-8226 33.5 µM | NCI/ADR-RES 32.1 µM | CAKI-1 > 100 µM | A498 > 100 µM | Malme-3M > 100 µM | SK-OV-3 59.4 µM | MCF7 70.6 µM | OVCAR-8 > 100 µM | EKVX 75.2 µM

Cc1cc(S(=O)(=O)N/C(=N/N)NCCc2ccccc2)c(S)cc1Cl
inactive: HCC 2998 23.2 µM | A549 36.1 µM | MDA-MB-435 22 µM | SF-268 28.7 µM | OVCAR-4 22.9 µM | SW-620 24 µM | HL-60 44.1 µM | SK-MEL-2 38.2 µM | RPMI-8226 32.7 µM | RXF 393 21.7 µM | NCI/ADR-RES 22.9 µM | CAKI-1 26.4 µM | OVCAR-3 24.5 µM | Malme-3M 22 µM | SK-OV-3 23.3 µM | MCF7 32.4 µM | OVCAR-8 18.9 µM | EKVX 34.8 µM

O=C(/C=C/c1cccs1)c1ccc([N+](=O)[O-])cc1
inactive: HCC 2998 > 100 µM | A549 > 100 µM | MDA-MB-435 > 100 µM | SF-268 > 100 µM | OVCAR-4 > 100 µM | SW-620 > 100 µM | HL-60 83.2 µM | SK-MEL-2 > 100 µM | RPMI-8226 49.4 µM | NCI/ADR-RES 83.4 µM | CAKI-1 > 100 µM | A498 > 100 µM | Malme-3M > 100 µM | SK-OV-3 > 100 µM | MCF7 61.7 µM | OVCAR-8 > 100 µM | EKVX > 100 µM

CCCCc1c(O)nc(Nc2nc3ccccc3[nH]2)[nH]c1=O
inactive: A549 > 100 µM | MDA-MB-435 > 100 µM | SF-268 98.9 µM | OVCAR-4 > 100 µM | SW-620 > 100 µM | HL-60 > 100 µM | SK-MEL-2 > 100 µM | RPMI-8226 > 100 µM | RXF 393 > 100 µM | NCI/ADR-RES > 100 µM | CAKI-1 > 100 µM | A498 > 100 µM | OVCAR-3 > 100 µM | Malme-3M 22.1 µM | SK-OV-3 > 100 µM | MCF7 > 100 µM | OVCAR-8 > 100 µM | EKVX > 100 µM

C1CCCN(NC2=NCCO2)CC1
inactive: HCC 2998 > 100 µM | A549 > 100 µM | MDA-MB-435 > 100 µM | OVCAR-4 > 100 µM | SW-620 > 100 µM | HL-60 > 100 µM | SK-MEL-2 > 100 µM | RPMI-8226 > 100 µM | RXF 393 > 100 µM | NCI/ADR-RES > 100 µM | CAKI-1 > 100 µM | A498 > 100 µM | OVCAR-3 > 100 µM | Malme-3M > 100 µM | MCF7 > 100 µM | OVCAR-8 > 100 µM | EKVX > 100 µM

O=C1CCCCCCCCCCC1CN1CCCC1 (stereo unspecified)
inactive: HCC 2998 20 µM | A549 43.6 µM | MDA-MB-435 36.1 µM | SF-268 50 µM | SW-620 39.3 µM | HL-60 32 µM | SK-MEL-2 17.9 µM | RPMI-8226 > 100 µM | RXF 393 15.1 µM | NCI/ADR-RES 40 µM | CAKI-1 43.1 µM | A498 19.4 µM | OVCAR-3 67.5 µM | Malme-3M 31.6 µM | SK-OV-3 50.9 µM | MCF7 20.5 µM | OVCAR-8 45.4 µM

O=C1CCC(=O)N1n1c(Cc2ccccc2)n[nH]c1=O
inactive: HCC 2998 > 100 µM | A549 > 100 µM | MDA-MB-435 > 100 µM | SF-268 > 100 µM | OVCAR-4 > 100 µM | SW-620 > 100 µM | SK-MEL-2 > 100 µM | RPMI-8226 > 100 µM | RXF 393 > 100 µM | NCI/ADR-RES > 100 µM | CAKI-1 > 100 µM | A498 > 100 µM | OVCAR-3 > 100 µM | Malme-3M > 100 µM | SK-OV-3 > 100 µM | MCF7 > 100 µM | OVCAR-8 > 100 µM | EKVX > 100 µM
